Reference: patent US20060287319A1, “Anti-viral compositions comprising heterocyclic substituted phenyl furans and related compounds” (priority 2005, published 2006)
Read-outs that look alike come from different tables or passages of the source.

Assays:
[1] = tested on: 93BR020 (clade F, X4R5); conditions: read-out: EC50 (μM) (Mean ± SD)
Procedure: (§1) Inhibitory activity of compounds on infection by primary HIV-1 isolates was determined as previously described (37). PBMCs were isolated from the blood of healthy donors at the New York Blood Center by standard density gradient centrifugation using Histopaque-1077 (Sigma). The cells were plated in 75 cm^2 plastic flasks and incubated at 37° C. for 2 hrs. The nonadherent cells were collected and resuspended at 5×10^6 in 10 ml RPMI-1640 medium containing 10% FBS, 5 μg/ml PHA and 100 U/ml IL-2 (Sigma), followed by incubation at 37° C. for 3 days. The PHA-stimulated cells were infected with corresponding primary HIV-1 isolates at 0.01 multiplicity of infection (MOI) in the absence or presence of a compound at graded concentrations. Culture media were changed every 3 days. The supernatants were collected 7 days post-infection and tested for p24 antigen by ELISA as described above. The percent inhibition of p24 production and IC50 values were calculated as described above.

[2] = tested on: 93MW959 (clade C, R5); conditions: read-out: EC50 (μM) (Mean ± SD)
Procedure: as §1

[3] = tested on: 92THA009 (clade E, R5); conditions: read-out: EC50 (μM) (Mean ± SD)
Procedure: as §1

[4] = tested on: BCF02 (clade O, R5); conditions: read-out: EC50 (μM) (Mean ± SD)
Procedure: as §1

[5] = tested on: 92US657 (clade B, R5); conditions: read-out: EC50 (μM) (Mean ± SD)
Procedure: as §1

[6] = tested on: 94UG103 (clade A, X4R5); conditions: read-out: EC50 (μM) (Mean ± SD)
Procedure: as §1

[7] = tested on: RU570 (clade G, R5); conditions: read-out: EC50 (μM) (Mean ± SD)
Procedure: as §1

[8] = tested on: HIV-1 IIIB; conditions: for EC50: read-out: EC50 (μM) (M ± SD) for inhibition of p24, MT-2 cells; for SI (CC50/EC50): selectivity index
Procedure: Assessment of anti-HIV-1 infectivity. The inhibitory activity of compounds on infection by laboratory-adapted HIV-1 strains was determined as previously described (34). […] For the time-of-addition assay, compounds were added at various time post-infection. Then the culture supernatants were removed and fresh media were added. On the fourth day post-infection, 100 μl of culture supernatants were collected from each well, mixed with equal volumes of 5% Triton X-100 and assayed for p24 antigen, which was quantitated by ELISA (23). Briefly, the wells of polystyrene plates (Immulon 1B, Dynex Technology, Chantilly, Va.) were coated with HIV immunoglobulin (HIVIG), which was prepared from plasma of HIV-seropositive donors with high neutralizing titers against HIV-1IIIB as previously described (36) in 0.085 M carbonate-bicarbonate buffer (pH 9.6) at 4° C. overnight, followed by washes with PBS-T buffer (0.01M PBS containing 0.05% Tween-20) and blocking with PBS containing 1% dry fat-free milk (Bio-Rad Inc., Hercules, Calif.). Virus lysates were added to the wells and incubated at 37° C. for 1 h. […] Reactions were terminated by addition of 1N H2SO4. […] Recombinant protein p24 (US Biological, Swampscott, Mass.) was included for establishing standard dose response curve.

[9] = read-out: IC50 (μM) (Mean ± SD), HIV-1 strain IIIB

Row | SMILES | EC50 [1] | EC50 [2] | EC50 [3] | EC50 [4] | EC50 [5] | EC50 [6] | EC50 [7] | EC50 ([8]; HIV-1 IIIB) | IC50 [8, 9] | SI (CC50/EC50) [8] | IC50 ([8]; read-out: IC50 inhibiting HIV-1 replication, HIV-1 IIIB)
1 | CCN1C(=O)/C(=C/c2ccc(-c3cccc(C(=O)O)c3)o2)SC1=S [NB179] | 0.143 ± 0.056 µM | 1.87 ± 0.155 µM | 6.21 ± 0.987 µM | 0.886 ± 0.242 µM | 0.847 ± 0.356 µM | 0.088 ± 0.047 µM | 0.431 ± 0.122 µM | 0.501 ± 0.039 µM | 0.501 ± 0.039 µM | >1230.77 | 
2 | O=C(O)c1cc(-c2ccc(/C=C3\SC(=S)N(CCc4ccccc4)C3=O)o2)ccc1Cl [NB206] | 0.084 ± 0.036 µM | 0.097 ± 0.002 µM | 0.075 ± 0.022 µM | 0.073 ± 0.012 µM | 0.216 ± 0.054 µM | 0.004 ± 0.001 µM | 0.017 ± 0.004 µM | 0.019 ± 0.002 µM |  | 981.11 | 0.019 µM
3 | O=C(O)c1cccc(-c2ccc(/C=C3\SC(=S)N(c4ccc(Cl)cc4Cl)C3=O)o2)c1 [NB231] | 0.139 ± 0.033 µM | 0.876 ± 0.002 µM | 0.217 ± 0.058 µM | 0.226 ± 0.003 µM | 1.06 ± 0.344 µM | 0.125 ± 0.013 µM | 0.143 ± 0.061 µM | 0.189 ± 0.042 µM | 0.189 ± 0.042 µM | 656.56 | 
